Results: ChEMBL document CHEMBL5252512, “Recent Progress in the Development of HIV-1 Protease Inhibitors for the Treatment of HIV/AIDS” (J Med Chem, 2016)
pEC50, pIC50, pKi: −log10 of the molar value. One block for each compound: values may come before it. Where a SMILES comes first, the peptide text is derived from it. Bridges are numbered along the chain shown (N, C = ends). Roman numbers before positions name the chains, in order. [ ]: non-standard residue; d: D form. The star is where a group is joined. ξ: configuration not given here. C16 diacid = O=C(O)CCCCCCCCCCCCCCC(=O)*; Phe(4-NH2) = Nc1ccc(C[C@H](N)C(=O)O)cc1; Ile(3ξ) = CCC(C)[C@H](N)C(=O)O; NHPhenethyl = c1ccc(CCN*)cc1

How the values were obtained:
[1] = system: Human immunodeficiency virus 1; experiment: Antiviral activity against multidrug-resistant HIV1-TM infected in phytohemagglutinin-activated human PBMC cells assessed as inhibition of virus-induced cytopathic effect measured after 7 days by MTT assay; type: functional, organism-based; conditions: Human immunodeficiency virus 1, TM, 168 h
[2] = system: Human immunodeficiency virus 1; experiment: Antiviral activity against wild type HIV1 ERS104pre infected in human PBMC cells assessed as inhibition of virus-induced cytopathic effect measured after 7 days by MTT assay; type: functional, organism-based; conditions: Human immunodeficiency virus 1, ERS104pre, 168 h
[3] = system: Human immunodeficiency virus 1; experiment: Antiviral activity against multidrug-resistant HIV1-JSL infected in phytohemagglutinin-activated human PBMC cells assessed as inhibition of virus-induced cytopathic effect measured after 7 days by MTT assay; type: functional, organism-based; conditions: Human immunodeficiency virus 1, JSL, 168 h
[4] = system: Human immunodeficiency virus 1; experiment: Antiviral activity against multidrug-resistant HIV1-B infected in phytohemagglutinin-activated human PBMC cells assessed as inhibition of virus-induced cytopathic effect measured after 7 days by MTT assay; type: functional, organism-based; conditions: Human immunodeficiency virus 1, B, 168 h
[5] = system: Human immunodeficiency virus 1; experiment: Antiviral activity against multidrug-resistant HIV1-C infected in phytohemagglutinin-activated human PBMC cells assessed as inhibition of virus-induced cytopathic effect measured after 7 days by MTT assay; type: functional, organism-based; conditions: Human immunodeficiency virus 1, C, 168 h
[6] = system: Human immunodeficiency virus 1; experiment: Antiviral activity against multidrug-resistant HIV1-MM infected in phytohemagglutinin-activated human PBMC cells assessed as inhibition of virus-induced cytopathic effect measured after 7 days by MTT assay; type: functional, organism-based; conditions: Human immunodeficiency virus 1, MM, 168 h
[7] = system: Human immunodeficiency virus 1; experiment: Antiviral activity against multidrug-resistant HIV1-G infected in phytohemagglutinin-activated human PBMC cells assessed as inhibition of virus-induced cytopathic effect measured after 7 days by MTT assay; type: functional, organism-based; conditions: Human immunodeficiency virus 1, G, 168 h
[8] = system: Human immunodeficiency virus 1; experiment: Antiviral activity against darunavir-resistant HIV1 10P infected in phytohemagglutinin-activated human PBMC cells assessed as inhibition of virus-induced cytopathic effect measured after 7 days by MTT assay; type: functional, organism-based; conditions: Human immunodeficiency virus 1, 10P, 168 h
[9] = system: Human immunodeficiency virus 1; experiment: Antiviral activity against darunavir-resistant HIV1 20P infected in phytohemagglutinin-activated human PBMC cells assessed as inhibition of virus-induced cytopathic effect measured after 7 days by MTT assay; type: functional, organism-based; conditions: Human immunodeficiency virus 1, 20P, 168 h
[10] = target: T1, Human immunodeficiency virus type 1 protease (Human immunodeficiency virus 1, UniProt Q72874); experiment: Inhibition of recombinant HIV1 Protease
[11] = target: T1, Human immunodeficiency virus type 1 protease; experiment: Binding affinity to HIV1 protease assessed as inhibition constant
[12] = system: Human immunodeficiency virus 1; experiment: Ratio of EC50 for antiviral activity against HIV1-C to EC50 for antiviral activity against wild type HIV1 ERS104pre; type: functional
[13] = system: Human immunodeficiency virus 1; experiment: Ratio of EC50 for antiviral activity against HIV1-G to EC50 for antiviral activity against wild type HIV1 ERS104pre; type: functional
[14] = system: Human immunodeficiency virus 1; experiment: Ratio of EC50 for antiviral activity against HIV1-B to EC50 for antiviral activity against wild type HIV1 ERS104pre; type: functional
[15] = system: Human immunodeficiency virus 1; experiment: Ratio of EC50 for antiviral activity against HIV1-JSL to EC50 for antiviral activity against wild type HIV1 ERS104pre; type: functional
[16] = system: Human immunodeficiency virus 1; experiment: Ratio of EC50 for antiviral activity against HIV1-MM to EC50 for antiviral activity against wild type HIV1 ERS104pre; type: functional
[17] = system: Human immunodeficiency virus 1; experiment: Ratio of EC50 for antiviral activity against HIV1-TM to EC50 for antiviral activity against wild type HIV1 ERS104pre; type: functional
[18] = target: T1, Human immunodeficiency virus type 1 protease; experiment: Binding affinity to wild-type HIV1 protease expressed in Escherichia coli by fluorometric assay
[19] = system: Human immunodeficiency virus 1; experiment: Antiviral activity against HIV1 LAI infected in human MT2 cells assessed as inhibition of virus-induced cytopathic effect by MTT assay; type: functional, organism-based; conditions: Human immunodeficiency virus 1, LAI

SMILES: CC(C)(C)NC(=O)[C@@H]1C[C@@H]2CCCC[C@@H]2CN1C[C@@H](O)[C@H](Cc1ccccc1)NC(=O)[C@H](CC(N)=O)NC(=O)c1ccc2ccccc2n1
pEC50 [1]: 7.00 | pEC50 [2]: 8.40 | pEC50 [3]: 6.54 | pEC50 [4]: 6.57 | pEC50 [5]: 7.46 | pEC50 [6]: 6.96 | pEC50 [7]: 7.48

SMILES: CC(C)CN(C[C@@H](O)[C@H](Cc1ccccc1)NC(=O)O[C@H]1CCOC1)S(=O)(=O)c1ccc(N)cc1
pEC50 [8]: < 6.00 | pEC50 [1]: 6.52 | pEC50 [2]: 7.54 | pEC50 [9]: < 6.00 | pEC50 [3]: 6.37 | pEC50 [4]: 6.44 | pEC50 [5]: 6.68 | pEC50 [6]: 6.57 | pEC50 [7]: 6.51

SMILES: COc1ccc(S(=O)(=O)N(CC(C)C)C[C@@H](O)[C@H](Cc2ccccc2)n2cc(CNC(=O)c3ccc(CNC(=O)OC(C)(C)C)cc3)nn2)cc1
pIC50 [10]: 7.89 | pKi [11]: 8.40

SMILES: CC(C)CN(C[C@@H](O)[C@H](Cc1ccccc1)NC(=O)O[C@H]1CO[C@H]2OCC[C@H]21)S(=O)(=O)c1ccc2c(c1)OCO2
Ratio EC50 [12]: 5 | pEC50 [1]: 8.49 | pEC50 [2]: 9.30 | Ratio EC50 [13]: 7 | Ratio EC50 [14]: 8 | Ratio EC50 [15]: 12 | Ratio EC50 [16]: 8 | Ratio EC50 [17]: 6 | pEC50 [3]: 8.22 | pEC50 [4]: 8.41 | pEC50 [5]: 8.57 | pEC50 [6]: 8.42 | pEC50 [7]: 8.47

SMILES: C[C@H](Cc1cc2c(cc1O)OCO2)[C@H](C)Cc1cc2c(cc1O)OCO2
pIC50 [10]: 5.25

SMILES: COc1ccc(S(=O)(=O)N(CC(C)C)C[C@@H](O)[C@H](Cc2ccccc2)n2cc(COC(=O)N[C@H]3c4ccccc4C[C@H]3O)nn2)cc1
pIC50 [10]: 8.22 | pKi [11]: 8.77

SMILES: CC(C)C[C@H](NC(=O)[C@@H](NC(=O)CCCCCCCCCCCCCCC(=O)N[C@@H](CC(N)=O)C(=O)N[C@@H](Cc1ccccc1)C(=O)O)[C@@H](C)O)C(=O)NCCc1ccc(Oc2ccc(O)cc2)cc1
pIC50 [10]: 7.02

SMILES: O=S1(=O)N(Cc2ccccc2-c2cc3ccccc3o2)C[C@H](O)[C@@H](O)CN1Cc1ccccc1-c1cc2ccccc2o1
pKi [18]: 6.28

pKi [11]: 6.87
SMILES: NC(=O)CN(Cc1ccc(N)cc1)C(=O)CN(CC1CCCCC1)C(=O)CN(Cc1ccc(N)cc1)C(=O)CCCCCCCCCCCCCCC(=O)N(CC(=O)N(CC(=O)O)Cc1ccccc1)Cc1ccc(N)cc1

SMILES: O=C(Cc1cccc2ccccc12)Nc1ccccc1CN1C[C@H](O)[C@@H](O)CN(Cc2ccccc2Br)S1(=O)=O
pKi [18]: 6.55

SMILES: CC(C)C[C@H](NC(=O)[C@@H](NC(=O)CCCCCCCCCCCCCCC(=O)N[C@@H](CC(N)=O)C(=O)N[C@@H](Cc1ccccc1)C(=O)O)[C@@H](C)O)C(=O)NCCc1cccc(O)c1
pIC50 [10]: 5.95

pKi [11]: 4.70
SMILES: O=C(Cc1cccc2ccccc12)O[C@H]1CNC[C@@H]1OC(=O)Cc1cccc2ccccc12

pKi [11]: 7.22
SMILES: COC(=O)[C@@H](NC(=O)[C@H](CC(C)C)NC(=O)[C@@H](NC(=O)CCCOc1ccc2ccc(OCCCC(=O)N[C@H](CCCCNC(=O)OCc3ccccc3)C(=O)NNC(=O)c3cc(NC(C)=O)ccc3OC)cc2c1)C(C)C)C(C)C

SMILES: O=C(Cc1cccc2ccccc12)Nc1ccccc1CN1C[C@H](O)[C@@H](O)CN(Cc2ccccc2)S1(=O)=O
pKi [18]: 6.85

pKi [11]: 7.40
SMILES: COC(=O)[C@@H](NC(=O)[C@H](CC(C)C)NC(=O)[C@@H](NC(=O)CCCOc1ccc2ccc(OCCCC(=O)N[C@H](CCCCNC(=O)OCc3ccccc3)C(=O)Nc3cccn(CC(N)=O)c3=O)cc2c1)C(C)C)C(C)C

pKi [11]: 7.72
SMILES: O=C1C[C@@H](NC(=O)[C@H](OCc2cccc(Br)c2)[C@H](O)[C@@H](O)[C@@H](OCc2cccc(Br)c2)C(=O)N[C@H]2c3ccccc3C[C@H]2O)c2ccccc21

pKi [11]: 7.96
SMILES: COc1cccc2c1C(=O)C[C@H]2NC(=O)[C@H](OCc1cccc(Br)c1)[C@H](O)[C@@H](O)[C@@H](OCc1cccc(Br)c1)C(=O)N[C@H]1c2ccccc2C[C@H]1O

pKi [11]: 6.10
SMILES: CCC(C)N(CC(=O)N(CC(N)=O)Cc1ccc(N)cc1)C(=O)CN(CCSC)C(=O)CCCCCCCCCCCCCCC(=O)N(CC(N)=O)CC(=O)N(CC(=O)O)Cc1ccccc1 (centres undefined)

pKi [11]: 8.86
SMILES: COc1ccc(S(=O)(=O)N(CC(C)C)C[C@@H](O)[C@H](Cc2ccccc2)NC(=O)O[C@H]2CO[C@H]3C[C@@H]4OCC[C@@H]4[C@H]32)cc1

SMILES: O=C(Cc1cccc2ccccc12)Nc1ccccc1CN1C[C@H](O)[C@@H](O)CN(Cc2ccccc2NC(=O)Cc2cccc3ccccc23)S1(=O)=O
pKi [18]: 7.70

SMILES: COc1ccc(S(=O)(=O)N(CC(C)C)C[C@@H](O)[C@H](Cc2ccccc2)NC(=O)O[C@@H]2CO[C@@H]3O[C@H]4OCC[C@H]4[C@@H]32)cc1
Ratio EC50 [12]: 1 | pEC50 [8]: < 6.00 | pEC50 [1]: 6.28 | pEC50 [2]: 6.46 | Ratio EC50 [13]: 2 | Ratio EC50 [14]: 2 | Ratio EC50 [15]: >3 | Ratio EC50 [16]: 2 | Ratio EC50 [17]: 2 | pEC50 [9]: < 6.00 | pEC50 [3]: < 6.00 | pEC50 [4]: 6.21 | pEC50 [5]: 6.29 | pEC50 [6]: 6.10 | pEC50 [7]: 6.18

SMILES: CC(C)C[C@H](NC(=O)[C@@H](NC(=O)CCCCCCCCCCCCCCC(=O)N[C@@H](CC(N)=O)C(=O)N[C@@H](Cc1ccccc1)C(=O)O)[C@@H](C)O)C(=O)NCCc1ccc(N)cc1
pIC50 [10]: 6.19

pKi [11]: 9.70
SMILES: COc1ccc(S(=O)(=O)N(CC(C)C)C[C@@H](O)[C@@H]2Cc3ccc(cc3)OC/C=C/CCc3c(O)cccc3C(=O)N2)cc1
pIC50 [19]: 6.68

SMILES: Cc1c(O)cccc1C(=O)N[C@@H](CSc1ccccc1)[C@H](O)CN1C[C@H]2CCCC[C@H]2C[C@H]1C(=O)NC(C)(C)C
pEC50 [5]: 6.60

SMILES: CC(C)C[C@H](NC(=O)[C@@H](NC(=O)CCCCCCCCCCCCCCC(=O)N[C@@H](CC(N)=O)C(=O)N[C@@H](Cc1ccccc1)C(=O)O)[C@@H](C)O)C(=O)NCCc1ccccc1 (I: Asn-Phe-OH / II: Thr-Leu-NHPhenethyl; linker I:N-II:N via C16 diacid)
pIC50 [10]: 5.24

pKi [11]: 7.07
SMILES: CCC(C)[C@H](NC(=O)[C@H](CCSC)NC(=O)CCCCCCCCCCCCCCC(=O)N[C@@H](CC(N)=O)C(=O)N[C@@H](Cc1ccccc1)C(=O)O)C(=O)N[C@@H](Cc1ccc(N)cc1)C(N)=O (stereo partly drawn) ({Phe-Asn-C16 diacid}-Met-[Ile(3ξ)]-[Phe(4-NH2)]-NH2)
